Columns and labels:
Accfib = Accfib (Agkistrodon contortrix contortrix, UniProt P28891); assay: biochemical
thermolysin = biological target: T1, thermolysin (Bacillus thermoproteolyticus, UniProt P00800); conditions: cited from earlier work
T1 sequence (P00800 233-548): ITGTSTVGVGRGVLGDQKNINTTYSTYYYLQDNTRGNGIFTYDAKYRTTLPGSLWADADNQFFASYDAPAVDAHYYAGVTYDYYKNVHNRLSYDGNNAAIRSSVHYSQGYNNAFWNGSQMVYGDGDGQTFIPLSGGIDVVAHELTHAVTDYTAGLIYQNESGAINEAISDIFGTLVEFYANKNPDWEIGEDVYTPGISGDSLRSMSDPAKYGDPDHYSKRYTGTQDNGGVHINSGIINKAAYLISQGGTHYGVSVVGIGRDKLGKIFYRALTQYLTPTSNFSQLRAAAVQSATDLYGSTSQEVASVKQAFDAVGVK

Accfib, sequence (P28891 whole entry, looked up): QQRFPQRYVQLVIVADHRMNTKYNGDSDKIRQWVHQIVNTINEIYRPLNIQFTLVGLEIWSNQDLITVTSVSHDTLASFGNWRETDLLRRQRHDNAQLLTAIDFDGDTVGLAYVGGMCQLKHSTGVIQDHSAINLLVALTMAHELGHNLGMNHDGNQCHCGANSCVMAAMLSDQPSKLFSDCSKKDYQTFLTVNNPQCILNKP

SMILES: CC(C)CC(C(=O)NO)C(=O)N[C@@H](C)C(=O)NCC(N)=O (stereo partly drawn) [Zincov, 2-(N-hydroxycarboxamido)-4-methylpentanoyl-L-alanyl-glycine amide]
- Ki (Accfib): 16 mM
- Ki (thermolysin): 0.00048 mM
